From ChEMBL document CHEMBL1133787, “Solid-phase optimisation of achiral amidinobenzyl indoles as potent and selective factor Xa inhibitors” (Bioorg Med Chem Lett, 2001)

What was measured:
[1] = molecular target: Coagulation factor X (Homo sapiens, UniProt P00742); assay: Inhibitory activity against serine protease factor Xa (fXa) was determined
[2] = molecular target: Prothrombin (Homo sapiens, UniProt P00734); assay: Inhibitory activity against thrombin was determined

Sequence of Coagulation factor X (P00742 41-179 limits assumed): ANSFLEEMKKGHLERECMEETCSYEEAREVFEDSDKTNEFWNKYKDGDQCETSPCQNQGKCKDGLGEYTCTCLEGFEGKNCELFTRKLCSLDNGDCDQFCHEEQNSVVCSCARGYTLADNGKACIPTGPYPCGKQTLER
Sequence of Coagulation factor X (P00742 235-488 limits assumed): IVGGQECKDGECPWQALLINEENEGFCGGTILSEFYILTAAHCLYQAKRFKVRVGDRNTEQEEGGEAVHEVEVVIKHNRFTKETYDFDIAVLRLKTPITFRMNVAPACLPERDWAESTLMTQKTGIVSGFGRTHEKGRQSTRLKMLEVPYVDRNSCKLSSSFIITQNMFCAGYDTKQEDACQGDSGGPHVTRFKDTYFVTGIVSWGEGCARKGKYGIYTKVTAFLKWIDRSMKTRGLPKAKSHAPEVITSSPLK

| Compound | Ki [1] | Ki [2] |
| --- | --- | --- |
| Cc1cc(C)cc(CNC(=O)c2cc3c(O)cccc3n2Cc2cccc(C(=N)N)c2)c1 | 0.011 µM | 0.62 µM |
| N=C(N)c1cccc(CNC(=O)c2cc3c(O)cccc3n2Cc2cccc(C(=N)N)c2)c1 |  | 3.6 µM |
| N=C(N)c1cccc(Cn2c(C(=O)Nc3cc(Cl)cc(Cl)c3)cc3c(O)cccc32)c1 | 0.798 µM |  |
| N=C(N)c1cccc(Cn2c(C(=O)NCCc3cccc(Cl)c3)cc3c(O)cccc32)c1 | 0.707 µM |  |
| N=C(N)c1cccc(Cn2c(C(=O)NCc3cc(Cl)cc(Cl)c3)cc3c(O)cccc32)c1 | 0.005 µM | 0.771 µM |

More lines, now with the values ahead:

| Ki [1] | Ki [2] | Compound |
| --- | --- | --- |
| 0.028 µM | 12 µM | C[N+](C)(C)c1ccc(CNC(=O)c2cc3cc(O)ccc3n2Cc2cccc(C(=N)N)c2)cc1 |
| 0.084 µM |  | N=C(N)c1cccc(CNC(=O)c2cc3cc(N)ccc3n2Cc2cccc(C(=N)N)c2)c1 |
| 0.262 µM |  | N=C(N)c1cccc(Cn2c(C(=O)NCc3cccc(Cl)c3)cc3c(O)cccc32)c1 |
